Results: PMC8286840, “Identifying SARS-CoV-2 antiviral compounds by screening for small molecule inhibitors of Nsp3 papain-like protease” (Biochemical Journal, 2021)
Where a name gives a salt, the structure may show the parent alone. Read-outs that look alike come from different tables or passages of the source.

Tests used:
[1] = target: T1, SARS-CoV-2 PLpro (nsp3 1564–1878) (Severe acute respiratory syndrome coronavirus 2, UniProt P0DTD1); assay: biochemical; set-up: FRET-quenched peptide (Pro3) cleavage by PLpro, 10 min pre-incubation, slope over 20 min, normalised to no-compound control; details: low concentration screen, read-out: % of control remaining
[2] = target: T1, SARS-CoV-2 PLpro (nsp3 1564–1878); assay: biochemical; set-up: FRET-quenched peptide (Pro3) cleavage by PLpro, 10 min pre-incubation, slope over 20 min, normalised to no-compound control; details: high concentration screen, read-out: % of control remaining

Nc1nc(=O)c2c([nH]1)NCC(CNc1ccc(C(=O)N[C@@H](CCC(=O)O)C(=O)O)cc1)N2C=O (stereo partly shown) [Leucovorin Calcium]
remaining activity at 1.25 µM ([1]; Well no.=4757): 103% | remaining activity at 3.75 µM ([2]; Well no.=4757): 107%

C[C@@H](Nc1cc(NS(=O)(=O)N2CCC2)nc(SCc2cccc(F)c2F)n1)[C@@H](O)CO [SRT3109]
remaining activity at 1.25 µM ([1]; Well no.=8607): 108% | remaining activity at 3.75 µM ([2]; Well no.=8607): 104%

CC[C@H](c1ccc(O)cc1)[C@@H](CC)c1ccc(O)cc1 [Hexestrol]
remaining activity at 1.25 µM ([1]; Well no.=2182): 99.9% | remaining activity at 3.75 µM ([2]; Well no.=2182): 100%

CCC(=O)NC[C@@H]1C[C@H]1c1cccc2c1CCO2 [Tasimelteon]
remaining activity at 1.25 µM ([1]; Well no.=6230): 97.6% | remaining activity at 3.75 µM ([2]; Well no.=6230): 99%

CCNC(=O)c1[nH]nc(-c2cc(Cl)c(O)cc2O)c1-c1ccc(OC)cc1 [VER-49009]
remaining activity at 1.25 µM ([1]; Well no.=8622): 100% | remaining activity at 3.75 µM ([2]; Well no.=8622): 100%

CC[C@]12CCCN3CCc4c(n(c5ccccc45)[C@@](O)(C(=O)OC)C1)[C@@H]32 [Vincamine]
remaining activity at 1.25 µM ([1]; Well no.=3475): 106% | remaining activity at 3.75 µM ([2]; Well no.=3475): 102%

NS(=O)(=O)c1cc2c(cc1Cl)NC(C(Cl)Cl)NS2(=O)=O (stereo not shown) [Trichloromethiazide]
remaining activity at 1.25 µM ([1]; Well no.=2072): 101% | remaining activity at 3.75 µM ([2]; Well no.=2072): 100%

COc1cc2ncnc(Nc3ccc(NC(=O)c4ccccc4)cc3)c2cc1OC [Aurora Kinase Inhibitor II]
remaining activity at 1.25 µM ([1]; Well no.=2321): 99.4% | remaining activity at 3.75 µM ([2]; Well no.=2321): 99.9%

CC(C)NC(C)Cc1ccc(I)cc1 (stereo not shown) [Iofetamine hydrochloride]
remaining activity at 1.25 µM ([1]; Well no.=1017): 100% | remaining activity at 3.75 µM ([2]; Well no.=1017): 105%

COc1ccc(NS(=O)(=O)c2ccc(N)cc2)nn1 [Sulfamethoxypyridazine]
remaining activity at 1.25 µM ([1]; Well no.=7354): 101% | remaining activity at 1.25 µM ([1]; Well no.=8613): 94.6% | remaining activity at 3.75 µM ([2]; Well no.=7354): 99.7% | remaining activity at 3.75 µM ([2]; Well no.=8613): 94.7%

OCCOCCN1CCN(C2=Nc3ccccc3Sc3ccccc32)CC1 [Quetiapine Fumarate]
remaining activity at 1.25 µM ([1]; Well no.=1684): 99.2% | remaining activity at 3.75 µM ([2]; Well no.=1684): 100%

CC(C)NCC(O)c1cc(O)cc(O)c1 (stereo not shown) [Metaproterenol hemisulfate]
remaining activity at 1.25 µM ([1]; Well no.=826): 104% | remaining activity at 3.75 µM ([2]; Well no.=826): 100%

C=C1[C@@H](C)[C@H]2[C@H](Cc3ccccc3)NC(=O)[C@]23OC(=O)/C=C/[C@H](O)CCC[C@@H](C)C/C=C/[C@H]3[C@@H]1O [Cytochalasin B]
remaining activity at 1.25 µM ([1]; Well no.=3189): 98% | remaining activity at 3.75 µM ([2]; Well no.=3189): 98.1%

CCn1nnc2c(N3CCOCC3)nc(-c3ccc(NC(=O)Nc4ccc(C(=O)N5CCN(C)CC5)cc4)cc3)nc21 [PKI-402]
remaining activity at 1.25 µM ([1]; Well no.=4699): 105% | remaining activity at 3.75 µM ([2]; Well no.=4699): 101%

COc1ccc2cc1Oc1ccc(cc1)C[C@H]1c3cc(c(OC)cc3CCN1C)Oc1c(OC)c(OC)c(OC)c3c1[C@H](C2)N(C)CC3 [Hernandezine]
remaining activity at 1.25 µM ([1]; Well no.=3151): 100% | remaining activity at 3.75 µM ([2]; Well no.=3151): 101%

Cc1ncc(CO)c(CO)c1O [Metadoxine]
remaining activity at 1.25 µM ([1]; Well no.=8662): 96.1% | remaining activity at 3.75 µM ([2]; Well no.=8662): 93.3%

O=C(O)c1cccnc1 [Nicotinic Acid]
remaining activity at 1.25 µM ([1]; Well no.=8286): 95.6% | remaining activity at 3.75 µM ([2]; Well no.=8286): 96.4%

N#CCCCSC(=N)N [Kevetrin (hydrochloride)]
remaining activity at 1.25 µM ([1]; Well no.=6250): 103% | remaining activity at 3.75 µM ([2]; Well no.=6250): 103%

CCCCCCCCCCCCCCCCC(=O)O [Heptadecanoic acid]
remaining activity at 1.25 µM ([1]; Well no.=4308): 106% | remaining activity at 3.75 µM ([2]; Well no.=4308): 101%

FC(F)(F)c1cc(CO[C@H]2CCCN[C@H]2c2ccccc2)cc(C(F)(F)F)c1 [L-733,060 hydrochloride]
remaining activity at 1.25 µM ([1]; Well no.=918): 99.8% | remaining activity at 3.75 µM ([2]; Well no.=918): 103%

O=c1cc(-c2ccc(O)cc2)oc2cc(O)cc(O)c12 [Apigenin]
remaining activity at 1.25 µM ([1]; Well no.=299): 93.8% | remaining activity at 1.25 µM ([1]; Well no.=3234): 99.1% | remaining activity at 1.25 µM ([1]; Well no.=3909): 101% | remaining activity at 3.75 µM ([2]; Well no.=299): 93.2% | remaining activity at 3.75 µM ([2]; Well no.=3234): 94.9% | remaining activity at 3.75 µM ([2]; Well no.=3909): 96.7%

CN1C(=O)C(c2c[nH]c3ccccc23)=C(c2c[nH]c3ccccc23)C1=O [Bisindolylmaleimide V]
remaining activity at 1.25 µM ([1]; Well no.=2339): 92.9% | remaining activity at 3.75 µM ([2]; Well no.=2339): 91.1%

O=c1[nH]c(=O)n([C@H]2C[C@H](O)[C@@H](CO)O2)cc1Br [5-BrdU]
remaining activity at 1.25 µM ([1]; Well no.=7862): 96% | remaining activity at 3.75 µM ([2]; Well no.=7862): 97.6%
